From ChEMBL document CHEMBL4842343, “1,10-Seco-Eudesmane sesquiterpenoids as a new type of anti-neuroinflammatory agents by suppressing TLR4/NF-κB/MAPK pathways” (Eur J Med Chem, 2021)

What was measured:
[1] = Inhibition of LPS-induced NO production in mouse BV-2 cells incubated for 24 hrs by Griess reagent based assay; assay type: functional, cell-based
BV-2 [2] = assay: Cytotoxicity against LPS-stimulated mouse BV-2 cells assessed as reduction in cell viability at 20 uM measured after 24 hrs by MTT assay relative to control; assay type: cell-based; conditions: bv-2, 24 h
[3] = Inhibition of iNOS expression in LPS-stimulated mouse BV-2 cells at 10 uM measured after 24 hrs by western blot analysis relative to control; assay type: functional
BV-2 [4] = assay: Antineuroinflammatory activity in LPS- stimulated mouse BV-2 cells assessed as fold increase in HO-1 expression at 10 uM measured after 24 hrs by immunoblotting analysis relative to control; assay type: functional
[5] = Effective permeability of the compound in PBS/EtOH buffer (9:1) at […] after 10 hrs by HPLC-UV based PAMPA-BBB assay; assay type: ADME; conditions: read-out: permeability
[6] = Mus musculus, BV-2, 24 h, read-out: EC50

SMILES	EC50 [1, 6] [µM]	Activity (BV-2 [2]) [%]	further results
CC(=O)OCCC[C@H](C)C1=C(C)C[C@H]2OC(=O)[C@]3(CC(c4ccc5ccccc5c4)=NO3)[C@H]2[C@@H]1OC(C)=O	> 50	95.4	
C#Cc1ccc(-c2cn([C@@H]3C(C)=C([C@@H](C)CCCOC(C)=O)[C@@H](OC(C)=O)[C@@H]4C(=C)C(=O)O[C@@H]43)nn2)cc1		38.5	EC50 ([1]; bv-2): Not Active
C=C1C(=O)O[C@@H]2C[C@@]3(C)O[C@@]3([C@@H](C)CCCOC(C)=O)[C@@H](O)[C@H]12	6.5	93.4	
C=C1C(=O)O[C@@H]2CC(CN(CC)CC)=C([C@@H](C)CCCOC(C)=O)[C@@H](OC(C)=O)[C@H]12	14.6	94.1	
CC(=O)OCCC[C@H](C)C1=C(C)C[C@H]2OC(=O)[C@]3(CC(c4ccccc4Br)=NO3)[C@H]2[C@@H]1OC(C)=O	> 50	98.6	
C=C1C(=O)O[C@@H]2CC(CN3CCCC3)=C([C@@H](C)CCCOC(C)=O)[C@@H](OC(C)=O)[C@H]12	30.2	95.2	
C=C1C(=O)O[C@@H]2CC(CN3CCCCC3)=C([C@@H](C)CCCOC(C)=O)[C@@H](OC(C)=O)[C@H]12	18.4	92.8	
CC(=O)OCCC[C@H](C)C1=C(C)C[C@H]2OC(=O)[C@]3(CC(c4ccc(F)cc4)=NO3)[C@H]2[C@@H]1OC(C)=O	39	101.5	
CC(=O)OCCC[C@H](C)C1=C(C)C[C@H]2OC(=O)[C@]3(CC(c4c(F)c(F)c(F)c(F)c4F)=NO3)[C@H]2[C@@H]1OC(C)=O	16.3	92.2	
C=C1C(=O)O[C@H]2[C@@H]1[C@H](OC(C)=O)C([C@@H](C)CCCOC(C)=O)=C(C)[C@H]2n1cc(C(=O)OC)nn1		63.8	EC50 ([1]; bv-2): Not Active
COc1ccc(C2=NO[C@]3(C2)C(=O)O[C@@H]2CC(C)=C([C@@H](C)CCCOC(C)=O)[C@@H](OC(C)=O)[C@@H]23)cc1	> 50	96.5	
C=C1C(=O)O[C@@H]2CC(CN3CCOCC3)=C([C@@H](C)CCCOC(C)=O)[C@@H](OC(C)=O)[C@H]12	14.4	91.3	
C=C1C[C@H]2OC(=O)C(=C)[C@H]2C=C1[C@@H](C)CCCOC(C)=O		54.2	EC50 ([1]; bv-2): Not Active
C=C1C(=O)O[C@@H]2C=C(C)C(Cl)([C@@H](C)CCCOC(C)=O)[C@@H](OC(C)=O)[C@H]12 (stereo partly specified)	2	90.8	
C=C1C(=O)O[C@H]2[C@@H]1[C@H](OC(C)=O)C([C@@H](C)CCCOC(C)=O)=C(C)[C@H]2N	3.8	90.9	
CC(=O)OCCC[C@H](C)C1=C(C)C[C@H]2OC(=O)[C@]3(CC(c4ccccc4[N+](=O)[O-])=NO3)[C@H]2[C@@H]1OC(C)=O	> 50	97.1	
CC(=O)OCCC[C@H](C)C1=C(C)C[C@H]2OC(=O)[C@]3(CC(c4ccc(N(C)C)cc4)=NO3)[C@H]2[C@@H]1OC(C)=O	28.6	9	

SMILES	EC50 [1, 6] [µM]	Activity (BV-2 [2]) [%]	further results
CC(=O)OCCC[C@H](C)C1=C(C)C[C@H]2OC(=O)[C@]3(CC(c4ccccc4)=NO3)[C@H]2[C@@H]1OC(C)=O	33	96.6	
C=C1C(=O)O[C@H]2[C@@H]1[C@H](OC(C)=O)C([C@@H](C)CCCOC(C)=O)=C(CBr)[C@@H]2Br	11.1	96	
CC(=O)OCCC[C@H](C)C1C(C)C[C@H]2OC(=O)C(C)[C@H]2[C@@H]1O (mixture of isomers)	> 50	98.5	
O=c1c(O)c(-c2ccc(O)c(O)c2)oc2cc(O)cc(O)c12 [QUERCETIN]	10.5	98.1	
C=C1C(=O)O[C@H]2[C@@H]1[C@H](OC(C)=O)C([C@@H](C)CCCOC(C)=O)=C(C)[C@H]2n1cc(-c2ccccc2)nn1		57.3	EC50 ([1]; bv-2): Not Active
C=C1C(=O)O[C@@H]2CC(=C)C(Cl)([C@@H](C)CCCOC(C)=O)[C@@H](OC(C)=O)[C@H]12 (stereo partly specified)	1	90.9	
C=C1C(=O)O[C@H]2[C@@H]1[C@H](OC(C)=O)C([C@@H](C)CCCOC(C)=O)=C(C)[C@@H]2Br	9.1	96.1	
COc1ccccc1C1=NO[C@]2(C1)C(=O)O[C@@H]1CC(C)=C([C@@H](C)CCCOC(C)=O)[C@@H](OC(C)=O)[C@@H]12	> 50	99.2	
C=C1C(=O)O[C@H]2[C@@H]1[C@H](OC(C)=O)C([C@@H](C)CCCOC(C)=O)=C(C)[C@@H]2c1ccccc1	4.5	91.7	
CC(=O)OCCC[C@H](C)C1=C(C)C[C@H]2OC(=O)/C(=C/c3ccc(O)cc3)[C@H]2[C@@H]1O	31.5	102.5	
CC(=O)OCCC[C@H](C)C1=C(C)C[C@H]2OC(=O)C(Cc3ccc(O)cc3)=C2[C@@H]1O	15.9	90.1	
C=C1C(=O)O[C@@H]2C[C@@]3(C)O[C@@]3([C@@H](C)CCCOC(C)=O)[C@@H](OC(C)=O)[C@H]12	2.8	89.5	
C=C1C(=O)O[C@@H]2CC(C)=C([C@@H](C)CCCOC(C)=O)[C@@H](OC(C)=O)[C@H]12	6.3	66.5	inhibition at 10 µM [3]: 59.7%; fold change (FC) (BV-2 [4]): 4; Papp at 10 h [5]: 12.3 ×10⁻⁶ cm/s
CC(=O)OCCC[C@H](C)C1=C(C)C[C@H]2OC(=O)[C@@H](C)[C@H]2[C@@H]1O	> 50	101.2	
C=C1C(=O)O[C@@H]2CC(C)=C([C@@H](C)CCCOC(C)=O)[C@@H](O)[C@H]12	12.5	99.5	Papp at 10 h [5]: 7.5 ×10⁻⁶ cm/s
C=C1C(=O)O[C@H]2[C@@H]1[C@H](OC(C)=O)C([C@@H](C)CCCOC(C)=O)=C(C)[C@H]2N=[N+]=[N-]	6.7	93.2	
NC(=O)N1c2ccccc2C=Cc2ccccc21 [CARBAMAZEPINE]			Papp at 10 h [5]: 10.7 ×10⁻⁶ cm/s
